# Biological target: Glutaminyl-peptide cyclotransferase (Homo sapiens, UniProt Q16769)
# Assay: Spectrophotometic Assay: Spectrophotometic Assay: This novel assay was used to determine the kinetic parameters for most of the QC substrates. QC activity was analyzed spectrophotometrically using a continuous method, that was derived by adapting a previous discontinuous assay (Bateman, R.C.J. 1989 J Neurosci Methods 30, 23-28).
# Sequence of Glutaminyl-peptide cyclotransferase (Q16769 whole entry): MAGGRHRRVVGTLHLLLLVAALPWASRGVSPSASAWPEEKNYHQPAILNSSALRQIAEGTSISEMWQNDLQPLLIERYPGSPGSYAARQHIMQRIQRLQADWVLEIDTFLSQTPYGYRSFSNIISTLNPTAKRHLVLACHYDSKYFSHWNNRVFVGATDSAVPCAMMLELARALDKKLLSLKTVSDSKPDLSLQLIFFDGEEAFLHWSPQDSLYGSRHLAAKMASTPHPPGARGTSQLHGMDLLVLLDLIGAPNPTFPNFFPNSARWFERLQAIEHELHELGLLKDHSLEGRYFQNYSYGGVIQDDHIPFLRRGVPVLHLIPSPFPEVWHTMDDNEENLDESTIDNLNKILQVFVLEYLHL
row,SMILES,IC50 [µM]
1,O=C1NCC(c2cccc(-c3ccccc3)c2)N1c1ccc2[nH]cnc2c1 (stereo not drawn),< 10
2,O=C1OC[C@H](CC2CCCCC2)N1c1ccc2[nH]cnc2c1,< 10
3,O=C1NCC(c2ccccc2Cl)N1c1ccc2nc[nH]c2c1 (stereo not drawn),< 10
4,CCCOc1ccc(C2CN(Cc3ccc4ccccc4c3)C(=O)N2c2ccc3[nH]cnc3c2)cc1 (stereo not drawn),< 10
5,COc1cc(F)c(C2COC(=O)N2c2ccc3[nH]cnc3c2)c(F)c1 (stereo not drawn),< 10
6,O=C1NCC(c2c(F)cccc2F)N1c1ccc2[nH]cnc2c1 (stereo not drawn),< 10
7,O=C1OC[C@H](c2ccc(-c3ccccc3)cc2)N1c1ccc2[nH]cnc2c1,< 10
8,O=C1NCC(c2ccc(OCCCN3CCOCC3)cc2)N1c1ccc2nc[nH]c2c1 (stereo not drawn),< 10
9,O=C1OC[C@H](c2ccc(C3CCCCC3)cc2)N1c1ccn2ccnc2c1,< 10
10,O=C1OC[C@H](c2ccc(N3CCOCC3)cc2)N1c1ccn2ccnc2c1,< 10
11,CCCOc1ccc(C2CCC(=O)N2c2ccc3[nH]cnc3c2)cc1 (stereo not drawn),< 10
12,O=C1NCC(c2ccc(OC3CCCCC3)cc2)N1c1ccc2[nH]cnc2c1 (stereo not drawn),< 10
13,O=C1NCC(c2ccc3c(c2)OC(F)(F)O3)N1c1ccc2[nH]cnc2c1 (stereo not drawn),< 10
14,CN(C)CCOc1ccc([C@H]2COC(=O)N2c2ccc3[nH]cnc3c2)cc1,< 10
15,COCCOc1ccc([C@H]2COC(=O)N2c2ccc3[nH]cnc3c2)cc1,< 10
16,CCCOc1ccc(C2CN(Cc3ccccc3)C(=O)N2c2ccc3[nH]cnc3c2)cc1 (stereo not drawn),< 10
17,O=C1NCC(c2ccc(N3CCCCC3)cc2)N1c1ccn2ccnc2c1 (stereo not drawn),< 10
18,O=C1OC[C@H](c2ccc3c(c2)OCCO3)N1c1ccc2nc[nH]c2c1,< 10
19,O=C1CCC(c2ccc3c(c2)OCCO3)N1c1ccc2[nH]cnc2c1 (stereo not drawn),< 10
20,O=C1OC[C@H](c2cc(F)cc(C(F)(F)F)c2)N1c1ccc2nc[nH]c2c1,< 10
21,O=C1OCC(c2ccc(N3CCCC3)cc2)N1c1ccc2[nH]cnc2c1 (stereo not drawn),< 10

row,SMILES,IC50 [µM]
1,O=C1NC[C@H](c2ccc(C3CCC(F)(F)CC3)cc2)N1c1ccc2[nH]cnc2c1,< 10
2,O=C1OC[C@H](C2CCC(c3ccccc3)CC2)N1c1ccc2[nH]cnc2c1 (stereo partly drawn),< 10
3,O=C1OC[C@H](c2ccc3c(c2)OCO3)N1c1ccc2nc[nH]c2c1,< 10
4,O=C1NCC(c2ccc3c(c2)OCCO3)N1c1ccc2[nH]cnc2c1 (stereo not drawn),< 10
5,O=C1NCC(c2ccc(C(F)(F)F)cc2F)N1c1ccc2[nH]cnc2c1 (stereo not drawn),< 10
6,O=C1NCC(c2ccc(C3CCOCC3)cc2)N1c1ccc2[nH]cnc2c1 (stereo not drawn),< 10
7,COCCN(CCOC)c1ccc([C@H]2COC(=O)N2c2ccc3[nH]cnc3c2)cc1,< 10
8,O=C1NCC(c2c(F)cccc2F)N1c1ccn2ccnc2c1 (stereo not drawn),< 10
9,COc1cc(F)c(C2CNC(=O)N2c2ccc3nc[nH]c3c2)c(F)c1 (stereo not drawn),< 10
10,O=C1NCC(C2CCN(c3ccccc3)CC2)N1c1ccc2nc[nH]c2c1 (stereo not drawn),< 10
11,CCCOc1ccc(C2CNC(=O)N2c2ccc3[nH]cnc3c2)cc1F (stereo not drawn),< 10
12,O=C1OC[C@H](c2cccc(N3CCCCC3)c2)N1c1ccc2[nH]cnc2c1,< 10
13,O=C1NCC(c2cccc(-c3cccc(Cl)c3)c2)N1c1ccc2[nH]cnc2c1 (stereo not drawn),< 10
14,O=C1NCC(c2ccc(OCCN3CCOCC3)cc2)N1c1ccc2nc[nH]c2c1 (stereo not drawn),< 10
15,O=C1NCC(c2cccc(N3CCCCC3)c2)N1c1ccn2ccnc2c1 (stereo not drawn),< 10
16,O=C1NCC(c2cc(F)cc(C(F)(F)F)c2)N1c1ccc2[nH]cnc2c1 (stereo not drawn),< 10
17,O=C1OCC(c2ccc(C3CCC(O)CC3)cc2)N1c1ccc2[nH]cnc2c1 (stereo not drawn),< 10
18,CCCOc1ccc([C@H]2[C@H](c3ccccc3)OC(=O)N2c2ccc3[nH]cnc3c2)cc1,< 10
19,CCCOc1ccc(C2CN(CCc3ccccc3)C(=O)N2c2ccc3[nH]cnc3c2)cc1 (stereo not drawn),< 10
20,O=C1NCC(c2ccc(C3CCCCC3)cc2)N1c1ccn2ccnc2c1 (stereo not drawn),< 10
21,O=C1NCC(c2ccc(-c3ccccc3)c(F)c2)N1c1ccc2[nH]cnc2c1 (stereo not drawn),< 10

# Now from value to molecule:
row,IC50 [µM],SMILES
1,< 10,CC(C)Oc1ccc(C2CNC(=O)N2c2ccc3nc[nH]c3c2)cc1 (stereo not drawn)
2,< 10,O=C1NCC(c2ccc(C3CCCCC3)cc2)N1c1ccc2[nH]cnc2c1 (stereo not drawn)
3,< 10,O=C1OC[C@H](c2cccc(F)c2F)N1c1ccc2nc[nH]c2c1
4,< 10,CN(C)CCCc1ccc([C@@H]2COC(=O)N2c2ccc3[nH]cnc3c2)cc1
5,< 10,O=C1OC[C@H](c2ccccc2)N1c1cc(F)c2[nH]cnc2c1
6,< 10,COc1ccc([C@H]2[C@@H](C)NC(=O)N2c2ccc3nc[nH]c3c2)cc1
7,< 10,O=C1c2ccccc2C(c2ccc(Cl)cc2)N1c1ccc2[nH]cnc2c1 (stereo not drawn)
8,< 10,O=C1OC[C@H](CCc2ccccc2)N1c1ccc2[nH]cnc2c1
9,< 10,O=C1NCC(c2cccc(F)c2)N1c1ccc2nc[nH]c2c1 (stereo not drawn)
10,< 10,CCCOc1ccc(C2CNC(=O)N2c2ccc3[nH]cnc3c2)c(F)c1 (stereo not drawn)
11,< 10,O=C1NCC(c2ccc(N3CCOCC3)cc2)N1c1ccc2[nH]cnc2c1 (stereo not drawn)
12,< 10,CN1CCN(c2cccc([C@H]3COC(=O)N3c3ccc4nc[nH]c4c3)c2)CC1
13,< 10,CN1CCC(c2ccc([C@H]3CNC(=O)N3c3ccc4[nH]cnc4c3)cc2)CC1
14,< 10,CCOc1ccc(C2CNC(=O)N2c2ccc3[nH]cnc3c2)cc1 (stereo not drawn)
15,< 10,O=C1NCC(c2ccccc2OCCN2CCOCC2)N1c1ccc2nc[nH]c2c1 (stereo not drawn)
16,< 10,COc1cc(C2CNC(=O)N2c2ccc3[nH]cnc3c2)ccc1F (stereo not drawn)
17,< 10,O=C1NCC(c2ccc(C3CCC(N4CCOCC4)CC3)cc2)N1c1ccc2[nH]cnc2c1 (stereo not drawn)
18,< 10,COc1ccc(C2CCC(=O)N2c2ccc3[nH]cnc3c2)cc1 (stereo not drawn)
19,< 10,O=C1NCC(c2ccc(-c3ccc(Cl)c(Cl)c3)cc2)N1c1ccc2nc[nH]c2c1 (stereo not drawn)
20,< 10,O=C1OC[C@H](c2cccc(F)c2)N1c1ccc2[nH]cnc2c1
21,< 10,CN1CCC(c2ccc(C3COC(=O)N3c3ccc4[nH]cnc4c3)cc2)CC1 (stereo not drawn)
22,< 10,O=C1OCC(c2ccc(C3CCOCC3)cc2)N1c1ccc2[nH]cnc2c1 (stereo not drawn)
23,< 10,COc1ccc(C2CNC(=O)N2c2ccc3nc[nH]c3c2)cc1F (stereo not drawn)

row,IC50 [µM],SMILES
1,< 10,O=C1OCC(c2ccc(OC3CCCCC3)cc2)N1c1ccc2[nH]cnc2c1 (stereo not drawn)
2,< 10,O=C1OC[C@H](c2cccc(-c3cccc(Cl)c3)c2)N1c1ccc2nc[nH]c2c1
3,< 10,CN(C)CCOc1ccc([C@H]2CNC(=O)N2c2ccc3[nH]cnc3c2)cc1
4,< 10,CC(C)Oc1ccc(C[C@H]2COC(=O)N2c2ccc3[nH]cnc3c2)cc1
5,< 10,COc1ccccc1C1CNC(=O)N1c1ccc2[nH]cnc2c1 (stereo not drawn)
6,< 10,O=C1OC[C@H](c2ccc(OCCN3CCNCC3)cc2)N1c1ccc2[nH]cnc2c1
7,< 10,O=C1OC[C@H](C2CCCCC2)N1c1ccc2[nH]cnc2c1
8,< 10,O=C1NCC(c2c(Cl)cccc2Cl)N1c1ccc2nc[nH]c2c1 (stereo not drawn)
9,< 10,O=C1CCC(c2ccc(C3CNC(=O)N3c3ccc4[nH]cnc4c3)cc2)CC1 (stereo not drawn)
10,< 10,CCN(CC)c1ccc([C@H]2COC(=O)N2c2ccc3[nH]cnc3c2)cc1
11,< 10,C[C@@H]1OC(=O)N(c2ccc3nc[nH]c3c2)[C@H]1c1ccccc1
12,< 10,CN1CCN(c2ccc([C@H]3COC(=O)N3c3ccc4nc[nH]c4c3)cc2)CC1
13,< 10,O=C1NCC(c2ccc(C(F)(F)F)c(F)c2)N1c1ccc2nc[nH]c2c1 (stereo not drawn)
14,< 10,O=C1NCC(c2ccc(Cl)c(Cl)c2)N1c1ccc2nc[nH]c2c1 (stereo not drawn)
15,< 10,COCCOc1ccc(C2CNC(=O)N2c2ccc3[nH]cnc3c2)cc1 (stereo not drawn)
16,< 10,O=C1NCC(c2ccc(-c3ccccc3)c(F)c2)N1c1ccn2ccnc2c1 (stereo not drawn)
17,< 10,O=C1NCC(c2ccc(N3CCN(c4ccccc4)CC3)cc2)N1c1ccn2ccnc2c1 (stereo not drawn)
18,< 10,O=C1OC[C@H](c2ccc(N3CCCCC3)cc2)N1c1ccc2[nH]cnc2c1
19,< 10,"CCCOc1ccc([C@H]2OC(=O)N(c3ccc4nc[nH]c4c3)[C@H]2c2ccc(OCCC)cc2)cc1 (single isomer, unassigned)"
20,< 10,O=C1NCC(c2ccc(Cl)cc2)N1c1ccc2[nH]cnc2c1 (stereo not drawn)
21,< 10,CCCOc1ccc(C2CN(CCCc3ccccc3)C(=O)N2c2ccc3[nH]cnc3c2)cc1 (stereo not drawn)
22,< 10,O=C1NCC(c2ccc(N3CCCC3)cc2)N1c1ccn2ccnc2c1 (stereo not drawn)
23,< 10,CC(c1ccccc1)C1COC(=O)N1c1ccc2[nH]cnc2c1 (stereo not drawn)
